According to ChEMBL document CHEMBL1147043, “Comparative metabolism of radiolabeled muraglitazar in animals and humans by quantitative and qualitative metabolite profiling” (Drug Metab Dispos, 2007):

What was measured:
[1] = Bile excretion of compound in bile duct-cannulated orally dosed cynomolgus monkey within 48 hrs; type: ADME, organism-based, Macaca fascicularis; settings: po, read-out: Activity
[2] = Cmax in cynomolgus monkey at 1.9 mg/kg, po after 144 hrs; type: ADME, organism-based, Macaca fascicularis; parameters: dose 1.9 mg/kg, route oral; settings: in vivo
[3] = Cmax in human at 10 mg, po after 192 hrs; type: ADME, organism-based; parameters: dose 10 mg, route oral; settings: in vivo
[4] = Tmax in Beagle dog at 2 mg/kg, po after 12 hrs; type: ADME, organism-based, Canis lupus familiaris; parameters: dose 2 mg/kg, route oral; settings: in vivo
[5] = AUC (0 to T) in Sprague-Dawley rat at 10 mg/kg, po after 96 hrs; type: ADME, organism-based; parameters: time < 96 hr, dose 10 mg/kg, route oral; settings: plasma
[6] = AUC (0 to T) in cynomolgus monkey at 1.9 mg/kg, po after 144 hrs; type: ADME, organism-based, Macaca fascicularis; parameters: time < 144 hr, dose 1.9 mg/kg, route oral; settings: plasma
[7] = Half life in Beagle dog at 2 mg/kg, po after 12 hrs; type: ADME, organism-based, Canis lupus familiaris; parameters: dose 2 mg/kg, route oral; settings: in vivo
[8] = Tmax in cynomolgus monkey at 1.9 mg/kg, po after 144 hrs; type: ADME, organism-based, Macaca fascicularis; parameters: dose 1.9 mg/kg, route oral; settings: in vivo
[9] = Tmax in human at 10 mg, po after 192 hrs; type: ADME, organism-based; settings: in vivo
[10] = Half life in Sprague-Dawley rat at 10 mg/kg, po after 96 hrs; type: ADME, organism-based; parameters: dose 10 mg/kg, route oral; settings: in vivo
[11] = Cmax in Beagle dog at 2 mg/kg, po after 12 hrs; type: ADME, organism-based, Canis lupus familiaris; parameters: dose 2 mg/kg, route oral; settings: in vivo
[12] = AUC (0 to T) in Beagle dog at 2 mg/kg, po after 12 hrs; type: ADME, organism-based, Canis lupus familiaris; parameters: time < 12 hr, dose 2 mg/kg, route oral; settings: plasma
[13] = Half life in cynomolgus monkey at 1.9 mg/kg, po after 144 hrs; type: ADME, organism-based, Macaca fascicularis; parameters: dose 1.9 mg/kg, route oral; settings: in vivo
[14] = Half life in human at 10 mg, po after 192 hrs; type: ADME, organism-based; settings: in vivo
[15] = AUC (0 to T) in human at 10 mg, po after 192 hrs; type: ADME, organism-based; parameters: dose 10 mg, time < 192 hr, route oral; settings: plasma
[16] = Cmax in Sprague-Dawley rat at 10 mg/kg, po after 96 hrs; type: ADME, organism-based; parameters: dose 10 mg/kg, route oral; settings: in vivo
[17] = Tmax in Sprague-Dawley rat at 10 mg/kg, po after 96 hrs; type: ADME, organism-based; parameters: dose 10 mg/kg, route oral; settings: in vivo
[18] = target: T1, Peroxisome proliferator-activated receptor alpha (Homo sapiens, UniProt Q07869); experiment: (§1) Agonist activity at PPAR alpha in human HEK cells by transactivation assay; type: functional, cell-based, HEK293
T1 sequence (Q07869 whole entry): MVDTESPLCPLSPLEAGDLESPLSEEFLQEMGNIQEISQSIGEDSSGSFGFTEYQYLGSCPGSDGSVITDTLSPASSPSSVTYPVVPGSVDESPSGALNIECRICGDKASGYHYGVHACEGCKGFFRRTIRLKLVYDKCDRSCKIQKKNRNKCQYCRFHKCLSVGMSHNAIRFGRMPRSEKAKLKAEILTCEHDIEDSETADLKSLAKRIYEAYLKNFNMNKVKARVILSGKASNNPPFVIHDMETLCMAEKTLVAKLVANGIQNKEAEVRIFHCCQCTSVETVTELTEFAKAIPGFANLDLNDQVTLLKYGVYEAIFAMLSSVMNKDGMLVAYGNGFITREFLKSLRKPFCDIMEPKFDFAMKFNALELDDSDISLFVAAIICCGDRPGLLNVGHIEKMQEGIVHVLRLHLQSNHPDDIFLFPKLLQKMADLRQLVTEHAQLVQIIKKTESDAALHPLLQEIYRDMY

[19] = target: T1, Peroxisome proliferator-activated receptor alpha; experiment: Binding affinity at PPAR alpha receptor
[20] = target: T2, Peroxisome proliferator-activated receptor alpha (Homo sapiens) (UniProt Q07869); experiment: Intrinsic activity at PPAR alpha in human HEK cells at 1 uM by transactivation assay; type: cell-based; settings: HEK293
T2 sequence (whole entry): T1 sequence (Q07869 whole entry)

[21] = target: T3, Peroxisome proliferator-activated receptor gamma (Homo sapiens, UniProt P37231); experiment: Binding affinity at PPAR gamma receptor
T3 sequence (P37231 whole entry): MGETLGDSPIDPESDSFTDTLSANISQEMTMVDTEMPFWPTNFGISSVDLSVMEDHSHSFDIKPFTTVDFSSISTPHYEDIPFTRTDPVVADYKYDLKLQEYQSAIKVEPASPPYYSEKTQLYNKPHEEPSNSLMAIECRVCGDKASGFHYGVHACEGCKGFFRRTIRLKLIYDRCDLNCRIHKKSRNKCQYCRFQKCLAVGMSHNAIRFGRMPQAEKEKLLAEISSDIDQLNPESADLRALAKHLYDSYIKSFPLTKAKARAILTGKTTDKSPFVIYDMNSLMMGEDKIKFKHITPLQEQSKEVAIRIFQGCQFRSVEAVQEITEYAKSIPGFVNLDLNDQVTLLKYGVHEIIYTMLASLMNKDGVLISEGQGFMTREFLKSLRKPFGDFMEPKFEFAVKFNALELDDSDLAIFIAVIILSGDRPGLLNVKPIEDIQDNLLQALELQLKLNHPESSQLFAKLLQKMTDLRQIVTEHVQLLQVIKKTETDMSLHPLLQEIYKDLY

[22] = target: T2, Peroxisome proliferator-activated receptor alpha (Homo sapiens); experiment: as §1; type: functional, cell-based; settings: HEK293
[23] = Bile excretion of compound in bile duct-cannulated orally dosed Sprague-Dawley rat within 24 hrs; type: ADME, organism-based; settings: po, read-out: Activity

SMILES | dose excreted at 48 h [1] [%] | EC50 [18] [µM] | IC50 [19] [µM] | IC50 [21] [µM] | also measured
COc1ccc(OC(=O)N(CC(=O)O)Cc2ccc(OCCc3nc(-c4ccccc4)oc3C)cc2)cc1.Cl [MURAGLITAZAR CHLORIDE] |  | 0.035 | 0.188 |  | Cmax [2]: 6900 ng/mL; Cmax [3]: 1800 ng/mL; Tmax [4]: 0.5 h; AUC(0-t) at 96 h [5]: 101000 ng·h/mL; AUC(0-t) at 144 h [6]: 41000 ng·h/mL; half-life [7]: 5.7 h; Tmax [8]: 1 h; Tmax [9]: 1 h; half-life [10]: 10.3 h; Cmax [11]: 800 ng/mL; AUC(0-t) at 12 h [12]: 1300 ng·h/mL; half-life [13]: 18 h; half-life [14]: 35.1 h; AUC(0-t) at 192 h [15]: 12000 ng·h/mL; Cmax [16]: 12800 ng/mL; Tmax [17]: 0.5 h
Cc1oc(-c2ccc(O)cc2)nc1CCOc1ccc(CN(CC(=O)O)C(=O)Oc2ccc(O)cc2)cc1 | < 5 |  |  |  | 
COc1ccc(OC(=O)N(CC(=O)O)Cc2ccc(OCCc3nc(-c4ccccc4)oc3C)cc2)cc1 |  |  |  |  | Intrinsic activity [20]: 120%
COc1ccc(OC(=O)N(CC(=O)O)Cc2ccc(OC(O)Cc3nc(-c4ccc(O)cc4)oc3C)cc2)cc1 (configuration not stated) | < 5 |  |  |  | 
COc1ccc(OC(=O)N(CC(=O)O)Cc2ccc(OCCc3nc(-c4ccc(O)cc4)oc3CO)cc2)cc1 | < 5 |  |  |  | 
O=C(O)CN(Cc1ccc(O)cc1)C(=O)Oc1ccc(O)cc1 | < 5 |  |  |  | 
COc1ccc(OC(=O)N(CC(=O)O)Cc2ccc(O)cc2)cc1 | < 5 | > 25 | > 15 | > 15 | 
Cc1oc(-c2ccccc2)nc1CC(O)Oc1ccc(CN(CC(=O)O)C(=O)Oc2ccc(O)cc2)cc1 (configuration not stated) | < 5 |  |  |  | 
Cc1oc(-c2ccccc2)nc1C(O)COc1ccc(CN(CC(=O)O)C(=O)Oc2ccc(O)cc2)cc1 (configuration not stated) | < 5 |  |  |  | 
Cc1oc(-c2ccc(O[C@@H]3O[C@H](C(=O)O)[C@@H](O)[C@H](O)[C@H]3O)cc2)nc1CCOc1ccc(CN(CC(=O)O)C(=O)Oc2ccc(O)cc2)cc1 | < 5 |  |  |  | 

Further lines, with some results ahead:

dose excreted at 48 h [1] [%] | EC50 [18] [µM] | IC50 [19] [µM] | IC50 [21] [µM] | SMILES | also measured
< 5 |  |  |  | COc1ccc(OC(=O)N(CC(=O)O)Cc2ccc(OCCc3nc(-c4ccccc4)oc3C(=O)O)cc2)cc1 | 
< 5 | 18.1 | > 15 | > 15 | O=C(O)CN(Cc1ccc(OCCc2nc(-c3ccccc3)oc2CO)cc1)C(=O)Oc1ccc(O)cc1 | Intrinsic activity [20]: 2%; %max [22]: 69%
< 5 |  |  |  | COc1ccc(OC(=O)N(CC(=O)O)Cc2ccc(OC(O)Cc3nc(-c4ccccc4)oc3CO)cc2)cc1 (configuration not stated) | 
< 5 | 1.94 | 3.09 | > 15 | COc1ccc(OC(=O)N(CC(=O)O)Cc2ccc(OCCc3nc(-c4ccccc4)oc3CO)cc2)cc1 | Intrinsic activity [20]: 24%; %max [22]: 88%
< 5 | > 25 | > 15 | > 15 | COc1ccc(OC(=O)N(CC(=O)O)Cc2ccc(OCCC(=O)N(C(C)=O)C(=O)c3ccccc3)cc2)cc1 | 
< 5 | 6.89 | 3.74 | > 15 | Cc1oc(-c2ccccc2)nc1CCOc1ccc(CN(CC(=O)O)C(=O)Oc2ccc(O)cc2)cc1 | Intrinsic activity [20]: 6%; dose excreted at 24 h [23]: 11%; %max [22]: 78%
< 5 | 0.26 | 0.099 | 2.05 | COc1ccc(OC(=O)N(CC(=O)O)Cc2ccc(OCCc3nc(-c4ccc(O)cc4)oc3C)cc2)cc1 | Intrinsic activity [20]: 78%; %max [22]: 93%
< 5 |  |  |  | COc1ccc(OC(=O)N(CC(=O)O)Cc2ccc(OCC(O)c3nc(-c4ccccc4)oc3CO)cc2)cc1 (configuration not stated) | 
< 5 |  |  |  | COc1ccc(OC(=O)N(CC(=O)O)Cc2ccc(OCC(O)c3nc(-c4ccccc4)oc3C)cc2)cc1 (configuration not stated) | 
< 5 | > 25 | > 15 | > 15 | COc1ccc(OC(=O)N(CC(=O)O)Cc2ccc(OCCC(=O)NC(=O)c3ccccc3)cc2)cc1 | 
